Assay results reported in ChEMBL document CHEMBL4828767, “Identification of Clinical Candidate M2698, a Dual p70S6K and Akt Inhibitor, for Treatment of PAM Pathway-Altered Cancers” (J Med Chem, 2021).
Each block holds one molecule with its values, some of them ahead of it.

How the values were obtained:
[1] = biological target: Ribosomal protein S6 kinase beta-1 (Homo sapiens, UniProt P23443, T412E); format: cell-based, Sf21
[2] = biological target: RAC-alpha serine/threonine-protein kinase (Homo sapiens, UniProt P31749)
Chain of RAC-alpha serine/threonine-protein kinase (P31749 whole entry): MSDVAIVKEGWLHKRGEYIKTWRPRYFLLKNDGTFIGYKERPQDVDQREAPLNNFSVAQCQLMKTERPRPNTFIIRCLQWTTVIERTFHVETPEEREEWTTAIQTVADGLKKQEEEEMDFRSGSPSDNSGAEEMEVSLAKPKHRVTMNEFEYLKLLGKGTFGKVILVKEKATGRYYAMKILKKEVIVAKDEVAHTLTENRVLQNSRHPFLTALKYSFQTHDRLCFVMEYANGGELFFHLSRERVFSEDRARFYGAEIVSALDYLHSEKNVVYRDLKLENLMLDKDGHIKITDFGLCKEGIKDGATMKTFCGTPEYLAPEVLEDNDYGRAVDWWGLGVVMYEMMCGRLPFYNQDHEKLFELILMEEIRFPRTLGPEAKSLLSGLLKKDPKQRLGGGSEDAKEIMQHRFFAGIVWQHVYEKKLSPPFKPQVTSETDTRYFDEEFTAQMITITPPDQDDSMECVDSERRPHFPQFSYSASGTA

cells = format: cell-based; settings: Homo sapiens, MDA-MB-468
in vivo [3] = settings: mouse
[4] = mouse, microsomes
Description: Intrinsic clearance in mouse microsomes

[5] = biological target: Aurora kinase B/Inner centromere protein (Homo sapiens, UniProt Q96GD4); assay: biochemical; format: cell-based, Sf21
Chain of Aurora kinase B/Inner centromere protein (Q96GD4 whole entry): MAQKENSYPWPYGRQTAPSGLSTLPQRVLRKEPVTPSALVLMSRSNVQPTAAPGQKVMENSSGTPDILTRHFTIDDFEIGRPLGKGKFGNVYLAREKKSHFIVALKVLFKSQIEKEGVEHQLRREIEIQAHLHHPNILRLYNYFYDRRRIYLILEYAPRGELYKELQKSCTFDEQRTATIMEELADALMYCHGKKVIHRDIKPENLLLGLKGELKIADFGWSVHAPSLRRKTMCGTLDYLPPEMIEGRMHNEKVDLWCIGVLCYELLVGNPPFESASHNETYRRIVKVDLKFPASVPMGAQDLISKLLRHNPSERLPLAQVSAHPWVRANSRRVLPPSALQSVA
Chain of Aurora kinase B/Inner centromere protein (Q9NQS7 whole entry, further chain): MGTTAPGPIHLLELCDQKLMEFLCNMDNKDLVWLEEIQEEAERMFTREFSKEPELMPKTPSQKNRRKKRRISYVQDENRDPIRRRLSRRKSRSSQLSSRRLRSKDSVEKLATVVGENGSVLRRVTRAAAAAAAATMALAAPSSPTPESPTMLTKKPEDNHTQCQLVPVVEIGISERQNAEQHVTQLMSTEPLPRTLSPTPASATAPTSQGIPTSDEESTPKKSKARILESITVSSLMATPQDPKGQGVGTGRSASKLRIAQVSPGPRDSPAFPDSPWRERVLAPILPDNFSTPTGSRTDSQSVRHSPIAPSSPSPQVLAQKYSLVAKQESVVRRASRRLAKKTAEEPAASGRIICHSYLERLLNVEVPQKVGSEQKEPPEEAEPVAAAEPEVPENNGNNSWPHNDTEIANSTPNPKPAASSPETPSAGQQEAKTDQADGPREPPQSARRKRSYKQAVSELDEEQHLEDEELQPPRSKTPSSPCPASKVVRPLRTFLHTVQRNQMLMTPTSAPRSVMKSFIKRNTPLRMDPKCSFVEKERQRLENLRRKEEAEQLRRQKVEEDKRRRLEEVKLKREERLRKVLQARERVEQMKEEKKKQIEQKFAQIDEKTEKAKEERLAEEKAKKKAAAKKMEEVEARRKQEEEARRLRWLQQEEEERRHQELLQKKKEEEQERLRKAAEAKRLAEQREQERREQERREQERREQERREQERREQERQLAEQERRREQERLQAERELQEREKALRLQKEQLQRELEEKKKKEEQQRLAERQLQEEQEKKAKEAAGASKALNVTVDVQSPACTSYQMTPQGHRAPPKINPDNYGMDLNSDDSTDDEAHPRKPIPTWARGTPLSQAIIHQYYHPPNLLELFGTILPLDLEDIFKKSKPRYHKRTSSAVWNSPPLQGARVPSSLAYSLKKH

in vitro [6] = settings: human, Caco-2
in vivo [7] = settings: mouse; remark: listed apart in the source
MDA-MB-468 = assay: cells; format: functional, cell-based; settings: Homo sapiens, MDA-MB-468, 96 h
Description: Antiproliferative activity against human MDA-MB-468 cells incubated for 96 hrs by luminescence method

in vitro [8] = settings: human, plasma
Description: Protein binding in human plasma assessed as unbound fraction

Cytochrome P450 2C9 = Cytochrome P450 2C9 (Homo sapiens, UniProt P11712)
Chain of Cytochrome P450 2C9 (P11712 whole entry): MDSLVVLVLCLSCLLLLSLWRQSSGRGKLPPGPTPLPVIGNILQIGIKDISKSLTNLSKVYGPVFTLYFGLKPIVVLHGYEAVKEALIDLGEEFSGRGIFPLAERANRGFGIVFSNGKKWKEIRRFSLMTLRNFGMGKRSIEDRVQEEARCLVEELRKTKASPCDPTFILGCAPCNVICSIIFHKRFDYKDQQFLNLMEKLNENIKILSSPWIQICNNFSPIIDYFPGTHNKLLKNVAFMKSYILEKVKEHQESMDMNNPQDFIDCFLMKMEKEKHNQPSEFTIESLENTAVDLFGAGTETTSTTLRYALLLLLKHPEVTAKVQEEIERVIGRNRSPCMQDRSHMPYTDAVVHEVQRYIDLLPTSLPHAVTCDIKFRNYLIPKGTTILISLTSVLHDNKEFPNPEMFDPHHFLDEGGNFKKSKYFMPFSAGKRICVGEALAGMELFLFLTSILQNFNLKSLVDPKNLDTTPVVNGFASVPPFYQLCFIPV
Description: Inhibition of CYP2C9 (unknown origin)

hERG (KCNH2) = hERG (KCNH2) (Homo sapiens, UniProt Q12809); assay: in vitro
Chain of hERG (KCNH2) (Q12809 whole entry): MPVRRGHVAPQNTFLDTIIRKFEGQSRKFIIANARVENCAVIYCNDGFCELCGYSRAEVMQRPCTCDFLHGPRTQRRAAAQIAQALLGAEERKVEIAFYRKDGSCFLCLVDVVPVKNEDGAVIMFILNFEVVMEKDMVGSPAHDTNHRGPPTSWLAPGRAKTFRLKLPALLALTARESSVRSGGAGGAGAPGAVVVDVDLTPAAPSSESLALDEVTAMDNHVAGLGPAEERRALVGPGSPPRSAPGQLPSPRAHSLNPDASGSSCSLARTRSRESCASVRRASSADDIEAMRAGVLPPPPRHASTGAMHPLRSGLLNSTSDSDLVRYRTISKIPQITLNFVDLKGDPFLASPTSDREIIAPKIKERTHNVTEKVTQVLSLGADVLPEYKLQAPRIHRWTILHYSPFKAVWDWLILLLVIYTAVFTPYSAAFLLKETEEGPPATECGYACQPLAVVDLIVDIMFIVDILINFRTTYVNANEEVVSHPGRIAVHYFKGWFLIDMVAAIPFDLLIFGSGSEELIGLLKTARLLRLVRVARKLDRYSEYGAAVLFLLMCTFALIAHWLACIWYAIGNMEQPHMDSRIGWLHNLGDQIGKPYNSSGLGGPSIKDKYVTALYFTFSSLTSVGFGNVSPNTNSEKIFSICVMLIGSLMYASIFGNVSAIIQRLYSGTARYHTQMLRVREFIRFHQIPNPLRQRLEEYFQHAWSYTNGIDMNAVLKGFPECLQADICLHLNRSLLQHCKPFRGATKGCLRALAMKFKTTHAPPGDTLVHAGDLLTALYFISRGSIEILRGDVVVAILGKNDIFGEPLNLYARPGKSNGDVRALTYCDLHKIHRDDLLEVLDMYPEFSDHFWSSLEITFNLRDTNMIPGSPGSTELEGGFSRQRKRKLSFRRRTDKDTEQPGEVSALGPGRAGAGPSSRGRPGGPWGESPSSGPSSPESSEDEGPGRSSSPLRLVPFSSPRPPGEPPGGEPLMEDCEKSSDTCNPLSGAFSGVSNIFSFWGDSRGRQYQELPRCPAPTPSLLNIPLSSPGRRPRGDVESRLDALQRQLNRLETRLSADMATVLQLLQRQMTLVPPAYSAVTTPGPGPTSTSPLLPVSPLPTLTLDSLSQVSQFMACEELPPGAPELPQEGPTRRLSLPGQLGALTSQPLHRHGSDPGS
Description: Inhibition of human ERG at 10 uM relative to control

[9] = human, microsomes
Description: Intrinsic clearance in human microsomes

in vitro [10] = settings: rat, plasma
Description: Protein binding in rat plasma assessed as unbound fraction

in vitro [11] = settings: mouse, plasma
Description: Protein binding in mouse plasma assessed as unbound fraction

[12] = rat, microsomes
Description: Intrinsic clearance in rat microsomes

in vivo [13] = settings: mouse, po
Description: Oral bioavailability in mouse

[14] = buffer, pH 7.4
Description: Thermodynamic solubility of compound at pH 7.4

in vivo [15] = settings: rat
Description: Volume of distribution at steady state in rat

in vivo [16] = settings: dog
in vivo [17] = settings: dog; remark: listed apart in the source
Description: Volume of distribution at steady state in dog

in vivo [18] = settings: rat; remark: listed apart in the source
physchem = settings: octanol/water
Description: Lipophilicity, logP of compound

in vivo [19] = settings: rat; remark: listed apart in the source
in vitro [20] = settings: human, Caco-2; remark: listed apart in the source
in vivo [21] = settings: cynomolgus monkey
Description: Half life in cynomolgus monkey

in vivo [22] = settings: rat, po
Description: Oral bioavailability in rat

in vivo [23] = settings: dog, po
Description: Oral bioavailability in dog

in vivo [24] = settings: mouse; remark: listed apart in the source
Description: Volume of distribution at steady state in mouse

in vivo [25] = settings: cynomolgus monkey; remark: listed apart in the source
Description: Volume of distribution at steady state in cynomolgus monkey

in vivo [26] = settings: dog; remark: listed apart in the source
in vivo [27] = settings: cynomolgus monkey; remark: listed apart in the source
Description: Clearance in cynomolgus monkey

in vivo [28] = settings: cynomolgus monkey, po
Description: Oral bioavailability in cynomolgus monkey

Chain of Ribosomal protein S6 kinase beta-1 (P23443 whole entry T412E): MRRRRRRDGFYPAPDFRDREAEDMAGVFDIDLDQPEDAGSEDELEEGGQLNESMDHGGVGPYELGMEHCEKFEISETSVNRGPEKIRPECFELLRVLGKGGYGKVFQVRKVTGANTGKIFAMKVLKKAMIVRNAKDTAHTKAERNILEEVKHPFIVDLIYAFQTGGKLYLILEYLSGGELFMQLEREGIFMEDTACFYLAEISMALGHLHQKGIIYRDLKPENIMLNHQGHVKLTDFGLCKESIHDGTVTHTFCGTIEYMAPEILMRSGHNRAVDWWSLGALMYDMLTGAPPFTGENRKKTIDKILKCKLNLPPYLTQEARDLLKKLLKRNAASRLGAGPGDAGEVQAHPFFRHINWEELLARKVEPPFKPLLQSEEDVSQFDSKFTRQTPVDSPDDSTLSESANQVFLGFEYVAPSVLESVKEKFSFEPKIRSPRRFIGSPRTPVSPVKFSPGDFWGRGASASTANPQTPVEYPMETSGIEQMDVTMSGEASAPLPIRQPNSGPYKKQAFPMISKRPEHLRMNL

- IC50 [1]: > 10 µM
SMILES: c1ccc(CNc2ncnc3ccccc23)cc1

- IC50 [2]: > 10 µM
SMILES: NC(=O)c1cccc2c(NCc3ccc4c(c3)OCO4)ncnc12

- IC50 [2]: > 10 µM
SMILES: NC(=O)c1cccc2c(NCc3ccc4c(c3)OCO4)ccnc12

- IC50 (cells): 0.00917 µM
SMILES: NC(=O)c1cccc2c(N[C@H](CN3CCCC3)c3ccccc3)ncnc12

- clearance (in vivo [3]): 1.74 L/h/kg
- CL [4]: 11 mL/min
- IC50 [5]: 0.004 µM
- Papp A→B (in vitro [6]): 160 nm/s
- half-life (in vivo [7]): 2.1 h
- IC50 (MDA-MB-468): 0.197 µM
- fraction unbound (in vitro [8]): 0.15
- IC50 (Cytochrome P450 2C9): 3.6 µM
- IC50 [2]: 0.004 µM
- CL [9]: 21 mL/min
- fraction unbound (in vitro [10]): 0.23
- IC50 (cells): 0.045 µM
- fraction unbound (in vitro [11]): 0.22
- CL [12]: 29 mL/min
- bioavailability (in vivo [13]): 33%
- Therm_solubility [14]: 64 mg/mL
SMILES: CNC[C@@H](Nc1ncnc2c(C(N)=O)cccc12)c1cccc(F)c1
- inhibition at 10 µM (hERG (KCNH2)): 26%

- IC50 [5]: 0.233 µM
- IC50 [1]: 0.0029 µM
- IC50 [2]: 0.006 µM
- IC50 (cells): 0.043 µM
SMILES: NC(=O)c1cccc2c(N[C@H](CN3CCC3)c3ccc(F)c(C(F)(F)F)c3)ncnc12

- IC50 (cells): 0.702 µM
SMILES: CNC[C@H](Nc1ncnc2c(C(N)=O)cccc12)c1cccc(F)c1

- IC50 [1]: > 10 µM
SMILES: CN(C)C(=O)c1cccc2c(NCc3ccc4c(c3)OCO4)ncnc12

- IC50 [1]: 0.0024 µM
- IC50 (cells): 0.076 µM
SMILES: NC(=O)c1cccc2c(N[C@H](CN3CCC3)c3cccc(F)c3)ncnc12

- IC50 [5]: > 1 µM
- IC50 [1]: 0.03 µM
- IC50 [2]: 0.4 µM
SMILES: CNC[C@@H](Nc1nc(C(F)(F)F)nc2c(C(N)=O)cccc12)c1cccc(F)c1

- IC50 [1]: > 10 µM
- IC50 [2]: > 10 µM
SMILES: NC(=O)c1cccc2c(NCc3ccc4c(c3)OCO4)nccc12

- IC50 [5]: 0.006 µM
- IC50 [1]: 0.002 µM
- IC50 [2]: 0.044 µM
- IC50 (cells): 0.072 µM
SMILES: CNC[C@@H](Nc1nc(C)nc2c(C(N)=O)cccc12)c1cccc(F)c1

- IC50 [1]: 0.0013 µM
- IC50 [2]: 0.014 µM
- IC50 (cells): 0.025 µM
SMILES: NC(=O)c1cccc2c(N[C@H](CN3CCC3)c3cccc(Cl)c3)ncnc12

- IC50 [5]: 0.075 µM
- IC50 [1]: 0.002 µM
- IC50 [2]: 0.01 µM
- IC50 (cells): 0.043 µM
SMILES: NC(=O)c1cccc2c(N[C@H](CN3CCC3)c3ccc(Cl)c(F)c3)ncnc12

- IC50 [5]: 0.045 µM
- IC50 [1]: 0.065 µM
- IC50 [2]: 0.563 µM
- IC50 (cells): > 1 µM
SMILES: NC(=O)c1cccc2c(N[C@H](CN3CCCC3)c3cccc(F)c3)ncnc12

- IC50 [1]: 0.001 µM
- IC50 [2]: 0.004 µM
- IC50 (cells): 0.074 µM
SMILES: NC(=O)c1cccc2c(N[C@H](CN3CCC3)c3ccc(F)c(F)c3)ncnc12

- IC50 [1]: > 10 µM
SMILES: O=C(O)c1cccc2c(NCc3ccc4c(c3)OCO4)ncnc12

- IC50 [5]: 0.051 µM
- IC50 [1]: 0.002 µM
- IC50 [2]: 0.212 µM
- IC50 (cells): 0.183 µM
SMILES: CCc1nc(N[C@H](CNC)c2cccc(F)c2)c2cccc(C(N)=O)c2n1

- IC50 [1]: 0.16 µM
SMILES: CNCCC(Nc1ncnc2c(C(N)=O)cccc12)c1ccccc1 (stereo unspecified)

- IC50 [1]: 0.001 µM
- IC50 (cells): 0.028 µM
SMILES: NC(=O)c1cccc2c(N[C@H](CN3CCC3)c3ccc(C(F)(F)F)cc3)ncnc12

- IC50 [1]: > 10 µM
SMILES: COC(=O)c1cccc2c(NCc3ccc4c(c3)OCO4)ncnc12

- IC50 [1]: > 10 µM
SMILES: CNC(=O)c1cccc2c(NCc3ccc4c(c3)OCO4)ncnc12

- IC50 [1]: 0.008 µM
- IC50 (cells): 0.103 µM
SMILES: NC(=O)c1cccc2c(N[C@H](CN3CCC3)c3ccc(F)cc3)ncnc12

- IC50 [2]: 0.006 µM
- IC50 (cells): 0.056 µM
SMILES: NC(=O)c1cccc2c(N[C@H](CN3CCC3)c3cccc(C(F)(F)F)c3)ncnc12

- IC50 [1]: 0.0062 µM
- IC50 (cells): 0.0016 µM
SMILES: NC(=O)c1cccc2c(N[C@H](CN3CCC3)c3ccccc3)ncnc12

- IC50 [1]: 0.973 µM
SMILES: CN(Cc1ccccc1)c1ncnc2c(C(N)=O)cccc12

- IC50 [5]: 0.009 µM
- IC50 [2]: 0.015 µM
- IC50 (cells): 0.025 µM
SMILES: CNCC(Nc1ncnc2c(C(N)=O)cccc12)c1cccc(F)c1 (racemic)

- Vd (in vivo [15]): 17.6 L/kg
- clearance (in vivo [16]): 1.2 L/h/kg
- clearance (in vivo [3]): 1.5 L/h/kg
- Vd (in vivo [17]): 7.43 L/kg
- CL [4]: 30 mL/min
- clearance (in vivo [18]): 3.1 L/h/kg
- IC50 [5]: 0.17 µM
- Papp A→B (in vitro [6]): 121 nm/s
- IC50 [1]: 0.0011 µM
- logP (physchem): 2.4
- half-life (in vivo [19]): 3.9 h
- efflux ratio (in vitro [20]): 1.5
- half-life (in vivo [7]): 4.3 h
- half-life (in vivo [21]): 10.1 h
- bioavailability (in vivo [22]): 15%
- fraction unbound (in vitro [8]): 0.05
- IC50 [2]: 0.004 µM
- bioavailability (in vivo [23]): 36%
- Vd (in vivo [24]): 9.88 L/kg
- CL [9]: 31 mL/min
- Vd (in vivo [25]): 14.3 L/kg
- half-life (in vivo [26]): 4.1 h
- fraction unbound (in vitro [10]): 0.05
- IC50 (cells): 0.011 µM
- fraction unbound (in vitro [11]): 0.03
- CL [12]: 37 mL/min
- clearance (in vivo [27]): 0.9 L/h/kg
- bioavailability (in vivo [13]): 43%
- bioavailability (in vivo [28]): 44%
SMILES: NC(=O)c1cccc2c(N[C@H](CN3CCC3)c3ccc(Cl)c(C(F)(F)F)c3)ncnc12 [RUPITASERTIB]
